{
  "source": "paper PMC4841555",
  "about": "“Optimization of the All-D Peptide D3 for Aβ Oligomer Elimination” (PLoS ONE, 2016)",
  "key": {"PC12 cells": {"system": "PC12 cells", "assay": "MTT cell viability assay", "type": "cell-based, rat", "conditions": "5 μM peptide without Aβ, 24 h", "quoted_text": "Rat pheochromocytoma PC12 cells (Leibniz Institute DSMZ, Braunschweig, Germany) were cultivated in DMEM medium supplemented with 10% fetal bovine serum and 5% horse serum. 10,000 cells per well were seeded on collagen-coated 96 well plates (Gibco, Life technology, Carlsberg, USA) and incubated in a 95% humidified atmosphere with 5% CO2 at 37°C for 24 h. […] DB peptide was then added at different concentrations and incubated for further 40 min at 21°C and 600 rpm agitation before addition to the PC12 cells. […] Cell viability was then measured using the Cell proliferation Kit I (MTT) (Roche, Basel, Switzerland) according to the manufacturer’s instruction. The absorbance of the formazan product was determined by measuring at 570 nm after subtracting the absorption at 660 nm. For absorption measurements, a Polarstar Optima plate reader (BMG, Offenburg, Germany) was used. All results were normalized to cells that were treated with buffer only.\nThe cell viability assay was performed using PC12 cells in a MTT test. […] The absorption of buffer treated cells was set to 100% cell viability. […] The Mann-Whitney-U-test was used for statistical analysis. * p < 0.05; ** p < 0.01; *** p < 0.001."}, "Aβ(1–42)": {"biological_target": "T1, Aβ(1–42) (Homo sapiens, UniProt P05067)", "T1 construct": "Aβ(1–42), N-terminally biotinylated Aβ(1–42) and FITC-Aβ(1–42) were purchased from Bachem; purchased Bachem (Heidelberg, Germany)", "T1 sequence (P05067 672-713 limits assumed)": "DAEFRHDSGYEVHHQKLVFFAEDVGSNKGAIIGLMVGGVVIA", "assay": "Thioflavin T (ThT) fibril formation assay", "type": "biochemical", "conditions": "pH 7.4, 20 μM Aβ(1–42), 20 μM peptide (method: 31 μg/ml), 20 μM ThT, 10 mM sodium phosphate pH 7.4, 37°C, compared after 5 h with Aβ(1–42)-only control; read-out: inhibition of Aβ(1–42) fibril formation (ThT fluorescence)", "experimental": "20 μM Aβ(1–42) was mixed with 20 μM Thioflavin T (ThT) and 31 μg/ml DB3 or DB3DB3 in 10 mM sodium phosphate buffer, pH 7.4. The assay was performed using a non-binding 96 well plate (Greiner Bio-One, Frickenhausen, Germany). ThT fluorescence was measured every 15 min at λex = 440 nm and λem = 490 nm in a temperature-controlled plate reader (Polarstar Optima, BMG, Offenburg, Germany) at 37°C with 1 min agitation before every measurement. Each value was background corrected using the ThT fluorescence of a peptide solution without Aβ(1–42). To investigate the influence of DB1 to DB5 on Aβ fibril formation, a Thioflavin T (ThT) assay was performed. In an aqueous environment the benzothiazole dye has a low fluorescence. […] The emission at 490 nm is directly proportional to the quantity of amyloid fibrils. Fibril formation of Aβ can be followed in real time by measuring the ThT fluorescence. Therefore, the inhibitory effects of the D-peptides DB1 to DB5 and D3 were investigated by co-incubating these peptides with Aβ(1–42) and performing the ThT assay. Fluorescence emission data were compared after 5 h incubation, because after this period the Aβ(1–42) control (without added peptide) reached its fluorescence maximum. […] 20 μM Aβ(1–42) was mixed with 20 μM DB1 to DB5 or 10 μM DB3DB3 and the ThT fluorescence was monitored. Aβ(1–42) without peptide addition was taken as the control. The ThT fluorescence of all samples were compared after 5 h, where the control, Aβ(1–42) only, reached its maximum in fluorescence emission. The Mann-Whitney-U-test was used for statistical analysis. * p < 0.05; ** p < 0.01; *** p < 0.001."}, "Aβ(1–42) monomers": {"biological_target": "T2, Aβ(1–42) monomers (Homo sapiens, UniProt P05067)", "T2 construct": "N-terminally biotinylated Aβ(1–42) monomers were immobilized on streptavidin biosensors; purchased Bachem (Heidelberg, Germany)", "T2 sequence (P05067 672-713 limits assumed)": "as above", "assay": "Biolayer interferometry (BLI) KD determination", "type": "binding", "conditions": "N-terminally biotinylated Aβ(1–42) immobilised on streptavidin biosensors, 20 mM sodium phosphate pH 7.4, steady state, Langmuir 1:1 model, mean ± SD of triplicate", "experimental": "BLI experiments were performed using an Octet RED96 instrument (fortéBIO, PALL Life Science, Menlo Park, USA). N-terminally biotinylated Aβ(1–42) was dissolved in HFIP, lyophilized and dissolved in 2 mM aqueous sodium hydroxide (1 mg/ml) in order to destroy any pre-existing aggregates. The Aβ(1–42) solution was neutralized by dilution in running buffer (20 mM sodium phosphate buffer, pH 7.4) to a final concentration of 20 μg/ml and directly immobilized on Super Streptavidin biosensors (SSA) (fortéBIO, PALL Life Science, Menlo Park, USA) to a final depth of 3 nm. Ligand biosensors and reference biosensors were quenched with 20 μg/ml biotin for 7 min.\nFor KD determinations, the binding of a dilution series of DB3 (200, 100, 50, 25, 12.5, 6.25, 3.125 μM) or DBDB3 (20, 10, 5, 2.5, 1.25, 0.625, 0.3125 μM) was detected in parallel to the ligand biosensors and reference biosensors. A separate buffer cycle was used for double referencing. […]\nFig 4 KD determination of DB3 and DB3DB3 to monomeric Aβ using biolayer interferometry (BLI). N-terminally biotinylated Aβ(1–42) monomers were immobilized on streptavidin biosensors and the binding of DB3 and DB3DB3 was detected. Representative double referenced sensorgrams of a dilution series of DB3 (A) and DB3DB3 (B) are shown, including the equilibrium dissociation constants (KD) as means ± SD of data recorded in triplicate. […]"}},
  "note": "Non-standard residues stand in square brackets, D forms with d. Residues, ends and D or L forms follow the SMILES beside them.",
  "data": [
    {"smiles": "CC[C@@H](C)[C@@H](NC(=O)[C@H]1CCCN1C(=O)[C@H](N)CCCNC(=N)N)C(=O)N[C@@H](C(=O)N[C@H](CCCNC(=N)N)C(=O)N[C@H](CC(C)C)C(=O)N[C@H](CCCNC(=N)N)C(=O)N[C@@H](C(=O)N[C@H](Cc1c[nH]cn1)C(=O)N[C@H](CCC(N)=O)C(=O)N[C@H](CC(N)=O)C(=O)N[C@H](CCCNC(=N)N)C(N)=O)[C@H](C)O)[C@H](C)O", "note": "[DB3] (H-[dR][dP][dI][dT][dR][dL][dR][dT][dH][dQ][dN][dR]-NH2)", "values": [
      {"measurement": "effect of peptide alone on PC12 cell viability", "setting": "PC12 cells", "value": "not toxic"},
      {"measurement": "inhibition at 31 µg/mL", "setting": "Aβ(1–42)", "value": 80, "unit": "%"},
      {"measurement": "Kd", "setting": "Aβ(1–42) monomers", "value": 74.7, "unit": "µM"}
    ]}
  ]
}
